Here are results for five molecules from patent US20160303245A1, “FATTY ACID DERIVATIVES OF DIMERIC INHIBITORS OF PSD-95” (UNIVERSITY OF COPENHAGEN, priority 2013, published 2016).

SMILES strings stand for the structures. Read-outs that look alike come from different tables or passages of the source. Where only a bound is given, the exact number is not on record here.

A short description of data set [1]: In vivo pharmacokinetics, blood concentration by LC-MS/MS after single s.c. bolus injection. Further details: species or system male Wistar rats. The settings on record: sc, rat. An excerpt:
To determine the pharmacokinetic properties of FA-linked compounds we measured the concentration of selected compounds in blood by LC-MS/MS following a single subcutaneous (s.c.) bolus injection in male Wistar rats (FIG. 5). From this, it was apparent that all FA-linked dimeric ligands have longer T1/2 and greater Tmax than dimeric ligand without FA (UCCB01-125) (Table 4 and FIG. 5). […] The increased Tmax is explained by a prolonged absorption from the injection site. Overall, these properties enable administration by s.c.depot injections and thereby slow and consistent release of compound into the blood, whereby fewer administrations are needed to maintain pharmaceutical relevant blood concentrations.

A short description of data set [2]: In vitro plasma stability assay (modified, GnHCl before TCA precipitation). It is filed as in vitro ADME. The settings on record: human plasma; for half-life: 1st order decay fit. As for the experimental part: The plasma-stability of 1, 4, 7 and 13 was evaluated in a modified version of an in vitro plasma stability assay (Bach et al, Angew. Chem, Int. Ed, 2009, 48, 9685-9689). In the original procedure, the investigated compound was incubated in human plasma. Samples were then taken out at appropriate timepoints and the serum proteins were removed by precipitation with trichloroacetic acid (TCA) followed by analysis of the supernatants by RP-HPLC. The obtained peak areas were normalized to the amount at T0 and fitted to a 1st order decay model to calculate the half-life. When this method was applied to the FA-linked dimeric ligands, sample recoveries were low (<5%). This was caused by the removal of the FA-linked dimeric ligands as HSA-bound complexes during the TCA precipitation. Therefore dissolution of the sample in solid guanidine hydrochloride (GnHCI) to a final concentration of 6M was performed prior to the TCA precipitation. The purpose of this was to unfold the HSA in the sample, releasing the FA-linked dimeric ligand.

The next data set deals with T1, HSA (Homo sapiens, UniProt P02768).
T1 construct: purchased Sovicell GMBH, Leipzig, Germany
Nature of the data set: Transil XL HSA binding assay (immobilized HSA, unbound compound quantified by RP-HPLC). As for the experimental part: The synthesized FA-linked dimeric ligands (1-12) were evaluated for their HSA affinity using a Transil^XL HSA binding assay kit (Sovicell GMBH, Leipzig, Germany). […] The assay kit consisted of prefilled wells with increasing concentrations of immobilized HSA as well as two control wells without HSA. The HSA had been immobilized in a random fashion to ensure that all binding sites on HSA were available. To conduct the assay, the wells were incubated with a known concentration of the tested compounds, and the unbound amount of compound was quantified using analytical RP-HPLC (C8 column). The fraction of unbound drug (fu) for each data point was calculated from the RP-HPLC data by comparison to a control sample without HSA. […] In eq. 1, it is assumed that the concentration of drug-bound HSA ([HSA-D]) is much lower than the total concentration of HSA in the well ([HSA-D]<<cHSA). The assay kit has been designed such that the assumption is valid for compounds where fu>1%. The calculated KD-values were used to calculate fb at physiological concentration of HSA (588 μM) using equation 2.

The target of another data set is PSD-95 PDZ1-2 (Homo sapiens, UniProt P78352). Nature of the data set: In vitro fluorescence polarization (FP) competition binding assay, in TBS and modified with 1% HSA. As for the experimental part:
Affinity to PSD-95 was measured using an in vitro fluorescence polarization (FP) assay as described by Bach et al (PNAS USA, 2012, 109, 3317-3322). First, a saturation binding curve was obtained to determine KD values for the interaction between a dimeric fluorescent probe and PSD-95 PDZ1-2. Increasing concentrations of PDZ1-2 were added to a constant concentration (0.5 nM) of the probe. The fluorescence polarization of the samples was measured at excitation/emission wavelengths of 635/670 nm and the FP values were fitted to a one site binding model using the program GraphPad Prism. […] The FP values were fitted to a one site competition (variable slope) model in GraphPad Prism. The resulting IC50 were converted to competition inhibition constants, Ki values, as described (Nikolovska-Coleska et al, Anal Biochem, 2004, 332, 261-273). The modified FP assay was conducted as described above with 1% HSA in the assay. The synthesized FA-linked dimeric ligands were evaluated for their affinity to PSD-95 PDZ1-2 in the FP assay. […] We first measured the affinities using a simple tris-buffered saline (TBS) buffer (Table 2, FIG. 3A); but furthermore, we investigated if HSA influenced the ability of the FA-linked dimers to bind PSD95 PDZ1-2 by conducting the FP assay with HSA present in the assay buffer (Table 2, FIG. 3B). […] For a traditional small-molecule drug, it is commonly accepted that the unbound fraction of the drug is free to diffuse across membranes and exerts the physiological effect by interacting with its target (Berezhkovskiy et al, J Pharm Sci 2007, 96, 249-257). I.e. if the drug is bound to another molecule, then it cannot interact with the target at the same time.

[3] abbreviates: dose 15 mg/kg, mean ± SEM, n = 3.
Setting [4] is: FP data (TBS+HSA) corrected for calculated fu, read-out: Ki(PSD95), free ligand.
[5] abbreviates: FP in TBS with 1% HSA (~150 μM), mean ± SEM, n ≧ 3, read-out: Ki(PSD95) + HSA.
[6] abbreviates: FP in TBS, mean ± SEM, n ≧ 3, read-out: Ki(PSD95).
[7] abbreviates: dose 10 mg/kg, mean ± SEM, n = 3.
Setting [8] is: dose 3 mg/kg, mean ± SEM, n = 3.
[9] abbreviates: dose 30 mg/kg, mean ± SEM, n = 3.

T1 sequence (P02768 25-609): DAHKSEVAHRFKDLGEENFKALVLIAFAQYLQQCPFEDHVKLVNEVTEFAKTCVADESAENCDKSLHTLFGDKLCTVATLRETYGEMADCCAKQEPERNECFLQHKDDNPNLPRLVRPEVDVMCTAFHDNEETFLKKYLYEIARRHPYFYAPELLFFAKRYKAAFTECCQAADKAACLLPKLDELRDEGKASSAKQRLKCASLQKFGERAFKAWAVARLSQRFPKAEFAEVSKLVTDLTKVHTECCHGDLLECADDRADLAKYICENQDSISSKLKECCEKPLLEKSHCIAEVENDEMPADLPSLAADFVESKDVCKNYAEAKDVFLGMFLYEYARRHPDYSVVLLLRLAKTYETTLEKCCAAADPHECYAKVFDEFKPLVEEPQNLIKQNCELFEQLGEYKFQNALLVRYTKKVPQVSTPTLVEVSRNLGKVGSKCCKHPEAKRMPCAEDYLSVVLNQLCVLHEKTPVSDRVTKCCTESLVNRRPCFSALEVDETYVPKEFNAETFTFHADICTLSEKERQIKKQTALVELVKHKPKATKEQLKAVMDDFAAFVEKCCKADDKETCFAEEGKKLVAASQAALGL
Chain of PSD-95 PDZ1-2 (P78352 61-249 limits assumed): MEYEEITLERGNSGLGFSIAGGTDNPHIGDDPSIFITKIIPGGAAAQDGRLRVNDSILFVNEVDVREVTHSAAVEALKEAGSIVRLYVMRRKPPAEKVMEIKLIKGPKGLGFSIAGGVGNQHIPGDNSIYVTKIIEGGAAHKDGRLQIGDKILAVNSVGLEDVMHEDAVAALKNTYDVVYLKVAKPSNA

As to `CCCCCCCCCCCC(=O)NCCCC(=O)N(CCOCCOCCC(=O)N[C@H](C(=O)N[C@@H](CCC(=O)O)C(=O)N[C@H](C(=O)N[C@@H](C)C(=O)N[C@H](C(=O)O)C(C)C)[C@@H](C)O)[C@@H](C)CC)CCOCCOCCC(=O)N[C@H](C(=O)N[C@@H](CCC(=O)O)C(=O)N[C@H](C(=O)N[C@@H](C)C(=O)N[C@H](C(=O)O)C(C)C)[C@@H](C)O)[C@@H](C)CC` [Compound 1], in data set [1] (setting [3]), the Tmax (in general, the time at which the peak concentration occurs) turned out to be 0.833 ± 0.167 h and the half-life (commonly how long it takes for the measured level to halve) is 0.768 ± 0.045 h. Moreover, in data set [2], the “In vitro plasma stability” value is on record as “degraded faster” and the half-life is 23.6 h. Also, the fraction unbound (in general, the share of the substance not bound to proteins or other matrix) on HSA came out at 0.151.

As to `CCCCCCCCCCCCCCCCCC(=O)N[C@@H](CCC(=O)N(CCOCCOCCC(=O)N[C@H](C(=O)N[C@@H](CCC(=O)O)C(=O)N[C@H](C(=O)N[C@@H](C)C(=O)N[C@H](C(=O)O)C(C)C)[C@@H](C)O)[C@@H](C)CC)CCOCCOCCC(=O)N[C@H](C(=O)N[C@@H](CCC(=O)O)C(=O)N[C@H](C(=O)N[C@@H](C)C(=O)N[C@H](C(=O)O)C(C)C)[C@@H](C)O)[C@@H](C)CC)C(=O)O` [Compound 7], the Ki (commonly the equilibrium dissociation constant of an inhibitor or competing ligand from its target) at PSD-95 PDZ1-2 (setting [4]) was 0.0591 µM; at PSD-95 PDZ1-2 (setting [5]) it was 1.39 ± 0.184 µM; on PSD-95 PDZ1-2 (setting [6]) it was 0.017 µM. Also, in data set [1] (setting [7]), the Tmax stood at 6 ± 1.15 h. Moreover, the half-life in data set [1] (setting [7]) was 10.7 ± 0.58 h; in data set [1] (single s.c. bolus injection), greater than 8 h; in data set [2], greater than 24 h. The “In vitro plasma stability” value in data set [2] is on record as “highly stable”. The affinity at HSA, expressed as Kd, was 6.8 ± 1.2 µM. This molecule showed a fraction unbound at HSA of 0.043.

Regarding `CCCCCCCCCCCCCCCCCC(=O)NCCCC(=O)N(CCOCCOCCC(=O)N[C@H](C(=O)N[C@@H](CCC(=O)O)C(=O)N[C@H](C(=O)N[C@@H](CC(=O)O)C(=O)N[C@H](C(=O)O)C(C)C)[C@@H](C)O)[C@@H](C)CC)CCOCCOCCC(=O)N[C@H](C(=O)N[C@@H](CCC(=O)O)C(=O)N[C@H](C(=O)N[C@@H](CC(=O)O)C(=O)N[C@H](C(=O)O)C(C)C)[C@@H](C)O)[C@@H](C)CC` [Compound 13], in data set [1] (setting [7]), the time of peak concentration (Tmax) turned out to be 8 h and the half-life is 16.3 ± 2.81 h. The same molecule had a half-life in data set [1] (single s.c. bolus injection) greater than 8 h. In data set [2], the “In vitro plasma stability” value is reported as “highly stable” and the half-life is greater than 24 h. Further, on HSA, the affinity, expressed as Kd, was 83 µM and the free fraction (fraction unbound) is 0.356.

On to `CC[C@H](C)[C@H](NC(=O)CCOCCOCCN(CCOCCOCCC(=O)N[C@H](C(=O)N[C@@H](CCC(=O)O)C(=O)N[C@H](C(=O)N[C@@H](C)C(=O)N[C@H](C(=O)O)C(C)C)[C@@H](C)O)[C@@H](C)CC)C(=O)CCCNC(=O)CCCCCCCCCCCCCCCCC(=O)O)C(=O)N[C@@H](CCC(=O)O)C(=O)N[C@H](C(=O)N[C@@H](C)C(=O)N[C@H](C(=O)O)C(C)C)[C@@H](C)O` [Compound 4], for which the Ki on PSD-95 PDZ1-2 (setting [4]) was 0.654 ± 0.034 µM; on PSD-95 PDZ1-2 (setting [5]) it was 5.72 ± 0.298 µM; at PSD-95 PDZ1-2 (setting [6]), 0.0114 ± 0.0006 µM. Besides, the Tmax in data set [1] (setting [3]) is 4.67 ± 0.66 h. Further, the half-life in data set [1] (setting [3]) was 8.13 ± 0.5 h; in data set [1] (single s.c. bolus injection) it was greater than 8 h; in data set [2], greater than 24 h. The “In vitro plasma stability” value in data set [2] is “highly stable”. Moreover, the Kd (in general, the equilibrium constant for the complex coming apart) on HSA turned out to be 19.4 ± 3.6 µM. For the same molecule, at HSA, the fraction unbound stood at 0.115.

For `CC[C@H](C)[C@H](NC(=O)CCOCCOCCOCCOCCOCCC(=O)N[C@H](C(=O)N[C@@H](CCC(=O)O)C(=O)N[C@H](C(=O)N[C@@H](C)C(=O)N[C@H](C(=O)O)C(C)C)[C@@H](C)O)[C@@H](C)CC)C(=O)N[C@@H](CCC(=O)O)C(=O)N[C@H](C(=O)N[C@@H](C)C(=O)N[C@H](C(=O)O)C(C)C)[C@@H](C)O` [UCCB01-125, reference compound], the time of peak concentration (Tmax) in data set [1] (setting [8]) and in data set [1] (setting [9]) was 0.5 h in each case. The half-life in data set [1] (setting [8]) is 0.561 ± 0.101 h; in data set [1] (setting [9]), 0.45 ± 0.068 h; in data set [2], 1.7 h. For the same molecule, binding at HSA was characterised by a dissociation constant (Kd) of 154 µM. For the same molecule, the free fraction (fraction unbound) at HSA amounted to 0.507.
